Data on one molecule can be found in patent US20100311756A1, “METHODS FOR DELAYING THE PROGRESSION OF AT LEAST ONE OF CARDIAC HYPERTROPHY, CARDIAC REMODELING OR LEFT VENTRICULAR FUNCTION OR THE ONSET OF HEART FAILURE IN SUBJECTS IN NEED OF TREATMENT THEREOF” (TAKEDA PHARMACEUTICALS NORTH AMERICA, INC., priority 2009, published 2010).

Structures are written as SMILES.

The nature of the assay: Serum uric acid level in rabbits (unpublished observations, 1998). To be noted: oral dose of 10 mg/kg. Format: in vivo. An excerpt: The procedures used in this study were reviewed and approved by the Institutional Animal Care and Use Committee (IACUC) of QTest Labs for compliance with regulations and current accepted practices. All applicable sections of the Final Rules of the Animal Welfare Act regulations (Section 9 CFR) and the Public Health Service Policy on Humane Care and Use of Laboratory Animals (OPRR, NIH, 1986) were followed. At the end of the study, all animals were humanely euthanized in accordance with accepted guidelines of the American Veterinary Medical Association (See, American Veterinary Medicine Association (AVMA), 2000 Report of the AVMA Panel on Euthanasia, The Journal of the American Veterinary Medical Association, 218(5):669-696 (2001)). • Drugs Febuxostat and allopurinol (Sigma-Aldrich, St. Louis, Mo., USA) were each formulated as a suspension in 0.5% methylcellulose (Sigma-Aldrich, St. Louis, Mo.) as the vehicle. The febuxostat oral dose of 10 mg/kg was estimated to provide a similar plasma level of febuxostat as the clinically efficacious dose (See, Khosravan et al., Clinical Pharmacokinetics, 45(8):821-841 (2006)). […] Allopurinol was given orally at 60 mg/kg. […] The rabbits were anesthetized with an intramuscular injection of ketamine (35 mg/kg)/xylazine (5 mg/kg) and pre-surgery enrofloxacin (12 mg/kg). […]

With `Cc1nc(-c2ccc(OCC(C)C)c(C#N)c2)sc1C(=O)O` [febuxostat, 2-[3-cyano-4-(2-methylpropoxy)phenyl]-4-methylthiazole-5-carboxylic acid], the “Serum uric acid level” value is “significant reduction”.
